Assay [1] deals with vesamicol receptor. To be noted: cited from earlier work.
Assay [2] has as its system cholinergic neurotransmission. The assay can be described thus: In vivo anticholinergic activity in mice (spasms, respiratory distress, paralysis, death). Further details: key to Pharmacological activity in mice: LD: lethal dose; NR: no visible pharmacological reaction; +: visible anticholinergic effects; S: sluggishness and reduced locomotor activity. As to the method: in vivo anticholinergic activity was evaluated in mice. Blockade of cholinergic neurotransmission (or anticholinergic activity) was manifested in a rapidly developing respiratory distress, spasms and paralysis. At lethal doses these symptoms were followed by death within 10 min. As evident in Table 3, several of the compounds tested were lethal at doses as low as 5 and 10 umol/Kg. […] All of the potent compounds belong to the 1,4 series, an observation consistent with the in vitro data discussed above.
^a Group of mice (n = 2) received selected doses of the compounds by
activity: spasms, respiratory distress, paralysis. At lethal doses, death
generally occurred within 10 min following the injection.

Assay [3] has as its target T1, vesamicol receptor (Tetronarce californica, UniProt P81721).
T1 sequence (P81721 1-515): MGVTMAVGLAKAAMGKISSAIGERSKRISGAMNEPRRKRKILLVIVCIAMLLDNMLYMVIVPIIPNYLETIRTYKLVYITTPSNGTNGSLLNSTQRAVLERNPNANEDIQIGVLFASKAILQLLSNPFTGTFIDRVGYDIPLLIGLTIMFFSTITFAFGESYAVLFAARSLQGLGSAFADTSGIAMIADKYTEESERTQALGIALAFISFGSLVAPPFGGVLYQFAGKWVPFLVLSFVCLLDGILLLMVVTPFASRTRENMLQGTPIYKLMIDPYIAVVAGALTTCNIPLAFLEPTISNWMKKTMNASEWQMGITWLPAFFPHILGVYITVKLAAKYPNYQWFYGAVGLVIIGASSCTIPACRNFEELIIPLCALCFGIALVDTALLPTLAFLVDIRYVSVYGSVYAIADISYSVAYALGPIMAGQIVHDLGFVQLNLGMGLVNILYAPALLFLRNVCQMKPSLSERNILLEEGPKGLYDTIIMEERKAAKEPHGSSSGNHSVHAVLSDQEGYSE
The assay can be described thus: Inhibition of [^3 H]vesamicol binding to highly purified synaptic vesicles (electric organ of Torpedo Californica). The note with it: for in vitro potency (in words): relative to comparator compounds. The text has this:
vesicles harvested from the electric organ of Torpedo Californica.
^b Data obtained from Bahr and Parsons (1986).
IC50 values are quoted ±1 standard deviation.
^d Obtained from Efange et al. (1991).

Setting [4] is: .30 umol/Kg (so in the source) ip.
[5] abbreviates: .60 umol/Kg (so in the source) ip.

The IC50 is the midpoint of a concentration-inhibition curve.

Structures are written as SMILES.

Turning to `OC(Cc1ccc(Br)cc1)CN1CCC(c2ccccc2)CC1` (racemic) [(dl)-4c], the increase in potency with vesamicol receptor [1] (4c relative to 4a) is on record as 59 times. Take `O[C@H]1CNCC[C@@H]1N1CCC(c2ccccc2)CC1` (relative stereo) [Compound 5, 3-Hydroxy-4-(4-phenylpiperidinyl)piperidine]: the “Pharmacological activity in mice” value in assay [2] (setting [4]) was “NR”.

In the case of `O[C@H]1CCNC[C@@H]1N1CCC(c2ccccc2)CC1` (relative stereo) [Compound 6], the “Pharmacological activity in mice” value in assay [2] (setting [4]) is given as “NR”. For `O=C(c1ccccc1)N1CC[C@H](N2CCC(c3ccccc3)CC2)[C@@H](O)C1` (relative stereo) [Compound 9a, 1-Benzoyl-3-hydroxy-4-(4-phenylpiperidinyl)piperidine], in assay [2] (setting [5]), the “Pharmacological activity in mice” value was “LD”. Turning to `O=C(c1ccccc1)N1CC[C@H](O)[C@@H](N2CCC(c3ccccc3)CC2)C1` (relative stereo) [Compound 10a, 1-Benzoyl-4-hydroxy-3-(4-phenylpiperidinyl)piperidine], the “Pharmacological activity in mice” value in assay [2] (setting [4]) is “LD”. For `O=C(c1ccccc1I)N1CC[C@H](O)[C@@H](N2CCC(c3ccccc3)CC2)C1` (relative stereo) [Compound 10b, 4-Hydroxy-1-(2-iodobenzoyl)-3-(4-phenylpiperidinyl)piperidine], the figures for the “Pharmacological activity in mice” value in assay [2] (2.5 umol/Kg ip) and in assay [2] (20 umol/Kg ip) were “NR” and “+”, respectively. For the compound `O[C@H]1CN(Cc2ccccc2)CC[C@@H]1N1CCC(c2ccccc2)CC1` (relative stereo) [Compound 11a], the “Pharmacological activity in mice” value in assay [2] (10 umol/Kg ip) is given as “NR”; in assay [2] (20 umol/Kg ip), “+”.

Take `O[C@H]1CN(Cc2ccccc2Br)CC[C@@H]1N1CCC(c2ccccc2)CC1` (relative stereo) [Compound 11b]: the “Pharmacological activity in mice” value in assay [2] (5.0 umol/Kg ip) is “NR”; in assay [2] (10 umol/Kg ip) it was “+”. Also, the “in vitro potency (in words)” value at vesamicol receptor [3] is listed as “slight but noticeable increase in activity”. For `O[C@H]1CN(Cc2cccc(Br)c2)CC[C@@H]1N1CCC(c2ccccc2)CC1` (relative stereo) [Compound 11c], the “Pharmacological activity in mice” value in assay [2] (10 umol/Kg ip), in assay [2] (20 umol/Kg ip) and in assay [2] (setting [5]) was “NR” in each case. Also, the “hind leg paralysis in mice” value in assay [2] (footnote c, .60 umol/Kg (so in the source) ip) was “Hind legs remained visibly paralyzed”. The “duration of visible hind leg paralysis” value in assay [2] (postinjection, footnote c, .60 umol/Kg (so in the source) ip) is on record as “at least 15 min”.

On to `O[C@H]1CN(Cc2ccc(Br)cc2)CC[C@@H]1N1CCC(c2ccccc2)CC1` (relative stereo) [Compound 11d], for which the “Pharmacological activity in mice” value in assay [2] (10 umol/Kg ip) is reported as “NR”. As for `O[C@H]1CCN(Cc2ccccc2)C[C@@H]1N1CCC(c2ccccc2)CC1` (relative stereo) [Compound 12a], the “Pharmacological activity in mice” value in assay [2] (10 umol/Kg ip) was “LD”. For the same compound, the “in vitro potency (in words)” value at vesamicol receptor [3] was “increased potency”. Take `O[C@H]1CCN(Cc2ccc(F)cc2)C[C@@H]1N1CCC(c2ccccc2)CC1` (relative stereo) [Compound 12d]: in assay [2] (10 umol/Kg ip), the “Pharmacological activity in mice” value is on record as “LD”. In addition, the “in vitro potency (in words)” value at vesamicol receptor [3] is “enhances potency”. Consider `O[C@H]1CCN(Cc2ccccc2Br)C[C@@H]1N1CCC(c2ccccc2)CC1` (relative stereo) [Compound 12e], for which the “Pharmacological activity in mice” value in assay [2] (10 umol/Kg ip) is given as “LD”. As to `O[C@H]1CCN(Cc2cccc(Br)c2)C[C@@H]1N1CCC(c2ccccc2)CC1` (relative stereo) [Compound 12f], the “Pharmacological activity in mice” value in assay [2] (5.0 umol/Kg ip) is “NR”; in assay [2] (10 umol/Kg ip), “LD”. As for `O[C@H]1CCN(Cc2ccc(Br)cc2)C[C@@H]1N1CCC(c2ccccc2)CC1` (relative stereo) [Compound 12g, 1-(4-Bromobenzyl)-4-hydroxy-3-(4-phenylpiperidinyl)piperidine], the figures for the “Pharmacological activity in mice” value in assay [2] (10 umol/Kg ip) and in assay [2] (20 umol/Kg ip) were “+” and “LD”, respectively.

On to `O[C@H]1CCN(Cc2cccc(I)c2)C[C@@H]1N1CCC(c2ccccc2)CC1` (relative stereo) [Compound 12h], for which the “Pharmacological activity in mice” value is “NR” in assay [2] (1.3 umol/Kg ip) and “LD” in assay [2] (5.0 umol/Kg ip). For the compound `O=[N+]([O-])c1ccc(N2CC[C@H](O)[C@@H](N3CCC(c4ccccc4)CC3)C2)cc1` (relative stereo) [Compound 12l, 4-Hydroxy-1-(4-nitrophenyl)-3-(4-phenylpiperidinyl)piperidine], in assay [2] (.15 umol/Kg (so in the source) ip), the “Pharmacological activity in mice” value was “NR”. As for `O=C(c1ccccc1)N1CC[C@H](O)[C@@H](N2CCC(c3ccccc3)CC2)C1` [(+)-10a], the “anticholinergic effects in mice” value in assay [2] (2.5 umol/Kg) was “elicited anticholinergic effects”. The “Pharmacological activity in mice” value in assay [2] (2.5 umol/Kg ip) was “+”; in assay [2] (5.0 umol/Kg ip) it was “LD”; in assay [2] (setting [4]), “LD”. As for `O=C(c1ccccc1)N1CC[C@@H](O)[C@H](N2CCC(c3ccccc3)CC2)C1` [(-)-10a], the “Pharmacological activity in mice” value in assay [2] (5.0 umol/Kg ip) is “+”. This compound also gave an IC50 at vesamicol receptor [3] (inhibition of [^3 H]vesamicol binding, hydrochlorides, ±1 standard deviation) of 100 ± 30 nM. As for `CC(C)(C)C1CC[C@@H](O)[C@H](N2CCC(c3ccccc3)CC2)C1` (stereo partly shown) [Compound 3], in the assay on vesamicol receptor [1] (earlier studies), the “vesamicol receptor affinity (in words)” value is “potent ligands”.

The record behind these values is patent publication US5876694A, “Azavesamicols” (priority 1997, dated 1999).
